{"source": "patent US4308210A", "about": "“Nanaomycin B and therapeutic compositions containing same” (The Kitasato Institute, priority 1976, dated 1981)", "format_in_all_cases": "cell-based", "key": {"[1]": {"test_system": "Trichophyton violaceum", "assay": "Antifungal activity, agar dilution method", "conditions": "potato agar, pH 6.4, 27° C., 4 days", "procedure": "(§1) Minimal inhibitory concentration is assayed by agar dilution method\n(§2) (potato agar, pH 6.4, 27° C., 4 days)"}, "[2]": {"test_system": "Microsporum gypseum", "assay": "Antifungal activity, agar dilution method", "conditions": "potato agar, pH 6.4, 27° C., 4 days", "procedure": "as §1, §2"}, "[3]": {"test_system": "Aspergillus niger", "assay": "Antifungal activity, agar dilution method", "conditions": "potato agar, pH 6.4, 27° C., 4 days", "procedure": "as §1, §2"}, "[4]": {"test_system": "Aspergillus fumigatus", "assay": "Antifungal activity, agar dilution method", "conditions": "potato agar, pH 6.4, 27° C., 4 days", "procedure": "as §1, §2"}, "[5]": {"test_system": "Trichophyton schoenleini", "assay": "Antifungal activity, agar dilution method", "conditions": "potato agar, pH 6.4, 27° C., 4 days", "procedure": "as §1, §2"}, "[6]": {"test_system": "Saccharomyces sake", "assay": "Antifungal activity, agar dilution method", "conditions": "potato agar, pH 6.4, 27° C., 4 days", "procedure": "as §1, §2"}, "[7]": {"test_system": "Trichophyton asteroides", "assay": "Antifungal activity, agar dilution method", "conditions": "potato agar, pH 6.4, 27° C., 4 days", "procedure": "as §1, §2"}, "[8]": {"test_system": "Trichophyton ferrugineum", "assay": "Antifungal activity, agar dilution method", "conditions": "potato agar, pH 6.4, 27° C., 4 days", "procedure": "as §1, §2"}, "[9]": {"test_system": "Trichophyton interdigitale", "assay": "Antifungal activity, agar dilution method", "conditions": "potato agar, pH 6.4, 27° C., 4 days", "procedure": "as §1, §2"}, "[10]": {"test_system": "Trichophyton rubrum", "assay": "Antifungal activity, agar dilution method", "conditions": "potato agar, pH 6.4, 27° C., 4 days", "procedure": "as §1, §2"}, "[11]": {"test_system": "Candida albicans", "assay": "Antifungal activity, agar dilution method", "conditions": "potato agar, pH 6.4, 27° C., 4 days", "procedure": "as §1, §2"}, "[12]": {"test_system": "mycoplasma", "assay": "Antimycoplasma activity, paper disc method", "conditions": "Eiken PPLO agar, pH 7.8, 37° C., 1 day", "procedure": "Inhibitory zone is assayed by paper disc method (Eiken PPLO agar, pH 7.8,"}, "[13]": {"conditions": "Trichophyton, 96 h, read-out: Minimal Inhibitory Con."}}}
{"compound": "ethylkalafunginate", "values": [{"measurement": "Minimal Inhibitory Con.", "setting": "[1]", "value": "> 100", "unit": "µg/mL"}, {"measurement": "Minimal Inhibitory Con.", "setting": "[2]", "value": "> 100", "unit": "µg/mL"}, {"measurement": "Minimal Inhibitory Con.", "setting": "[3]", "value": "> 100", "unit": "µg/mL"}, {"measurement": "Minimal Inhibitory Con.", "setting": "[4]", "value": "> 100", "unit": "µg/mL"}, {"measurement": "Minimal Inhibitory Con.", "setting": "[5]", "value": "> 100", "unit": "µg/mL"}, {"measurement": "Minimal Inhibitory Con.", "setting": "[6]", "value": "> 100", "unit": "µg/mL"}, {"measurement": "Minimal Inhibitory Con.", "setting": "[7]", "value": "> 100", "unit": "µg/mL"}, {"measurement": "Minimal Inhibitory Con.", "setting": "[8]", "value": "> 100", "unit": "µg/mL"}, {"measurement": "Minimal Inhibitory Con.", "setting": "[9]", "value": "> 100", "unit": "µg/mL"}, {"measurement": "Minimal Inhibitory Con.", "setting": "[10]", "value": "> 100", "unit": "µg/mL"}, {"measurement": "Minimal Inhibitory Con.", "setting": "[11]", "value": "> 100", "unit": "µg/mL"}, {"measurement": "Inhibitory Zone", "setting": "[12]; 10 μg/ml", "value": "none"}, {"measurement": "Inhibitory Zone", "setting": "[12]; 100 μg/ml", "value": "none"}]}
{"compound": "CCC[C@H]1O[C@H](CC(=O)O)CC2=C1C(=O)c1c(O)cccc1C2=O", "note": "[Deoxyfrenolicin, deoxyfrenolicin]", "values": [{"measurement": "MIC", "setting": "[1]; Trichophyton violaceum, 96 h, read-out: Minimal Inhibitory Con.", "value": 0.8, "unit": "µg/mL"}, {"measurement": "MIC", "setting": "[2]; Nannizzia gypsea, 96 h, read-out: Minimal Inhibitory Con.", "value": "< 0.2", "unit": "µg/mL"}, {"measurement": "MIC", "setting": "[3]; Aspergillus niger, 96 h, read-out: Minimal Inhibitory Con.", "value": "> 100", "unit": "µg/mL"}, {"measurement": "MIC", "setting": "[4]; Aspergillus fumigatus, 96 h, read-out: Minimal Inhibitory Con.", "value": 6.3, "unit": "µg/mL"}, {"measurement": "MIC", "setting": "[5]; [13]", "value": "< 0.2", "unit": "µg/mL"}, {"measurement": "MIC", "setting": "[6]; Saccharomyces, 96 h, read-out: Minimal Inhibitory Con.", "value": 6.3, "unit": "µg/mL"}, {"measurement": "MIC", "setting": "[7]; [13]", "value": "< 0.2", "unit": "µg/mL"}, {"measurement": "MIC", "setting": "[8]; Microsporum ferrugineum, 96 h, read-out: Minimal Inhibitory Con.", "value": 3.1, "unit": "µg/mL"}, {"measurement": "MIC", "setting": "[9]; Trichophyton interdigitale, 96 h, read-out: Minimal Inhibitory Con.", "value": 0.4, "unit": "µg/mL"}, {"measurement": "MIC", "setting": "[10]; Trichophyton rubrum, 96 h, read-out: Minimal Inhibitory Con.", "value": "< 0.2", "unit": "µg/mL"}, {"measurement": "MIC", "setting": "[11]; Candida albicans, 96 h, read-out: Minimal Inhibitory Con.", "value": 50, "unit": "µg/mL"}, {"measurement": "zone of inhibition at 10 µg/mL", "setting": "[12]; Mycoplasma, 24 h, 10 μg/ml, read-out: Inhibitory Zone", "value": 14.6, "unit": "mm"}, {"measurement": "zone of inhibition at 100 µg/mL", "setting": "[12]; Mycoplasma, 24 h, 100 μg/ml, read-out: Inhibitory Zone", "value": 21.8, "unit": "mm"}]}
